Laboratory results from PMC3510438, “The transmembrane tyrosines Y56, Y91 and Y167 play important roles in determining the affinity and transport rate of the rabbit proton-coupled peptide transporter PepT1” (The International Journal of Biochemistry & Cell Biology, 2009).
Substitutions are numbered along the chain they refer to.

What was measured:
Assay in all cases: Uptake of tracer [3H]-D-Phe-L-Gln into Xenopus oocytes
Type in all cases: cell-based, rabbit
Y167F-rPepT1 = target: T1, Y167F-rPepT1 (Oryctolagus cuniculus, UniProt P36836, Y167F)
T1 construct: expressed in transfected cells; host or cells: Xenopus laevis oocytes injected with cRNA
T1 sequence (P36836 1-707 Y167F): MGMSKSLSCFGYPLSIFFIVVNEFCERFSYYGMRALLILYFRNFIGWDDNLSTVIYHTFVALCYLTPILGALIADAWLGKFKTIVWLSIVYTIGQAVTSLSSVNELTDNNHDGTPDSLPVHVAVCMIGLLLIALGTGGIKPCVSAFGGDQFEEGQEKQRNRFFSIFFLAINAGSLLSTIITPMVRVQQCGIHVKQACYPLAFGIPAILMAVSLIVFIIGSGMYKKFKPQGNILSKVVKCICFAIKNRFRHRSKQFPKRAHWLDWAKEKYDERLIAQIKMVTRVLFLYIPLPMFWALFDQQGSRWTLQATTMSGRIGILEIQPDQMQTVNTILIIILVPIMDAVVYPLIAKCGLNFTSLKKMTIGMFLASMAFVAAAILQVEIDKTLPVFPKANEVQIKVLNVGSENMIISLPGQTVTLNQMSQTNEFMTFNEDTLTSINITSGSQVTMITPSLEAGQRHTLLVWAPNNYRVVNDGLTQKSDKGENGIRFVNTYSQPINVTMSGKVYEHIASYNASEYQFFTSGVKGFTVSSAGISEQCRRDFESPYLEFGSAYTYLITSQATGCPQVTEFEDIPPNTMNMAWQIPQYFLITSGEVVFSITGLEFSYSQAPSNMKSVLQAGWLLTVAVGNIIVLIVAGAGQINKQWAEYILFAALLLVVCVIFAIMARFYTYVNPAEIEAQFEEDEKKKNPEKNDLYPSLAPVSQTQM
Description: (§1) rPepT1 constructs were linearised with XbaI (New England Biolabs, UK) and cRNA generated by in vitro transcription (T7 mMessage mMachine, Ambion, Cambridgeshire, UK). Xenopus laevis oocytes were obtained under MS222 anaesthesia (0.2%, w/v) in accordance with the UK Animals (Scientific Procedures) Act, 1986, and maintained at 18 °C in modified Barth's medium (88 mM NaCl, 1 mM KCl, 0.82 mM MgSO4, 2.4 mM NaHCO3, 0.42 mM CaCl2, 10 mM Hepes, 5 mM sodium pyruvate, 50 μg ml^−1 gentamicin (Fluka, Poole, UK), adjusted to pH 7.6 with 1 M NaOH). Transport measurements were performed at least 72 h after micro-injection of oocytes with 27nl cRNA (1 μg/μl), with medium changed daily.
(§2) Uptake of [^3H]-D-Phe-L-Gln (17.4 Ci/mmole, custom synthesised, Cambridge Research Biochemicals, Stockton-on-Tees, UK) was performed as previously described ([Meredith, 2004]). Briefly, 5 oocytes were incubated in 100 μl of uptake medium (95 mM NaCl, 2 mM KCl, 1 mM CaCl2, 0.42 mM MgCl2, 10 mM Tris/Hepes pH 7.4 or Tris/Mes pH 5.5) with tracer (0.4 μM) [^3H]-D-Phe-L-Gln. After incubation, the oocytes were washed sequentially five times in 1 ml of ice-cold 120 mM NaCl solution, lysed individually with 100 μl 2% (w/v) SDS and liquid scintillation counted. As a control non-injected oocytes were also incubated in uptake medium with D-Phe-L-Gln as above.

Y167R-rPepT1 = target: T2, Y167R-rPepT1 (Oryctolagus cuniculus, UniProt P36836, Y167R); conditions: both pHout 5.5 and 7.4
T2 construct: expressed in transfected cells; host or cells: Xenopus laevis oocytes injected with cRNA
T2 sequence (P36836 1-707 Y167R): T1 sequence (P36836 1-707 Y167F) with F167R
Description: as §1, §2

wild-type rPepT1 = target: T3, wild-type rPepT1 (Oryctolagus cuniculus, UniProt P36836); conditions: 0.4 μM tracer; pHout 5.5; 1 h; non-injected control subtracted
T3 construct: expressed in transfected cells; host or cells: Xenopus laevis oocytes injected with cRNA
T3 sequence (P36836 1-707): T1 sequence (P36836 1-707 Y167F) with F167Y
Description: as §1, §2

Substance: [^3H]-D-Phe-L-Gln
- reduction of uptake compared to the wild-type (Y167F-rPepT1; both pHout 5.5 and 7.4): > 90%
- decrease in rate of uptake compared to the wild-type (Y167F-rPepT1; pHout 5.5, 1 h): ~90%
- reduction of uptake compared to the wild-type (Y167R-rPepT1): > 90%
- uptake (wild-type rPepT1): 342 ± 37 fmol peptide/(oocyte h)
